From patent publication US12435051B2, “Dual modulator of mGluR5 and 5-HT2A receptor, and use thereof” (Vivozon Inc., priority 2020, dated 2025) come the findings set out here.

Where two headings read alike, the source gives them in different places. Bounds are passed on as bounds.

For one test, the target named is T1, human 5-HT2AR (Homo sapiens, UniProt P28223).
T1 construct: expressed in transfected cells; host or cells: HEK293
The test is described as follows: HTRF-based IP1 accumulation assay (5-HT2AR antagonistic effect). In kind it is cell-based. The settings on record: HEK293 cells overexpressing human 5-HT2AR; serotonin at EC80. The gist of the method: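 HEK293 cells stably overexpressing human 5-HT2AR were pre-incubated with compound (top 10 μM, serial dilutions, LiCl buffer) 10 min at room temperature, then stimulated with EC80 serotonin 30 min at 37 °C. IP1 accumulation was read by HTRF; IC50s came from activity normalized to serotonin and IP1 controls.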
On the technique in general: In TR-FRET formats the signal depends on donor and acceptor labels being close together.

In test [1] the test system is physical (tactile) allodynia in spinal nerve ligation model. The test is described as follows: Analgesic efficacy experiment using animal model (Chung model, spinal nerve ligation). In kind it is in vivo, Sprague-Dawley rats. The settings on record: rat, oral; for inhibition in vivo at 100 mg/kg: 100 mpk; for inhibition in vivo at 12.5 mg/kg: 12.5 mpk; for inhibition in vivo at 50 mg/kg: 50 mpk. How it is done: The Chung model (spinal nerve ligation model) is a representative animal model to study neuropathic pain and is widely accepted as a gold standard for an animal pain model by global pharmaceutical companies around the world.
In this experiment, male Sprague-Dawley rats (100-120 g) purchased from Koatech (Pyeongtaek-si, Gyeonggi-do) were used. Rats were kept in a room maintained at constant temperature and humidity with a 12 hour light-dark cycle. Rats were allowed to eat and drink freely during the experiment.
For the Chung surgery, rats were anesthetized by isoflurane inhalation and the left lumbar nerves L5 and L6 were tightly tied with a suture thread (6-0 silk thread) at the end of the dorsal ganglion and at a front of an entrance to the sciatic nerve according to the article (Kim and Chung (1992), Pain 50(3):355-63). After suturing the incision, the rats were recovered for 2 weeks in the controlled maintenance room to induce physical allodynia in the left hind paw of the rat. To measure physical (tactile) allodynia, the rats were placed in a cage with a wire mesh on the bottom. Stimuli of increasing intensity (using the von Frey filaments in a range of 0.41 to 15.8 g) were placed on the plantar surface on the side of the nerve injury. The stimulus intensity at which the pain response (abrupt lifting, licking or sucking of the foot) was induced was recorded while applying gradual increment of stimuli. As described in the study of Chaplan et al. (1994) (Chaplan et al. (1994) J. Neurosci. Methods 53(1):55-63), the paw withdrawal threshold (PWT) was determined by increasing or decreasing continuous stimulus intensity, and the result was analyzed by applying Dixon's up-down method. Only rats showing no behavior dysfunction (e.g., feet dragging or dropping) were selected and included in the study, and the PWT of the rats used was 3.16 g or less.
After measuring the degree of basic reaction before drug injection, each compound and solvent were injected by oral administration (12.5-100 mg/kg), and the measurement was repeated at regular time intervals (60 and 120 minutes) after the drug was injected.
The experimenter conducted the PWT measurement in a blind condition not knowing which rat was administered with which drug. The control group was administered with gabapentin (65 mg/kg, intraperitoneal administration), and was randomly mixed during the measurement. Statistical analysis was performed on the measured pain response threshold by calculating the reversal rate (% reversal) from pain in Equation 1 below. […] Pain reversal rate (% reversal)=[(PWT after drug administration)−(PWT before drug administration)]*100/[(15 g, Estimated PWT in normal animals)−(PWT before drug administration)] [Equation 1]
The PWT used in this time is a value obtained by multiplying the gram, the unit of “force” measure, by 10,000, and taking the logarithm, which is a method generally used in academia.
Each experiment consisted of the compound group, the solvent group of the compound and the gabapentin (GBP) group as positive control group. As solvent of the compound, 0.5% HPMC (hydroxypropylmethyl cellulose) was used.

The target in another test is T2, mGluR5 (Homo sapiens, UniProt P41594).
T2 construct: expressed in transfected cells; host or cells: HEK293
The test is described as follows: Fluorescence-based Ca2+ mobilization assay. In kind it is cell-based. As to conditions: HEK293 cells overexpressing mGluR5; L-glutamate at EC80. In short, it runs like this: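 HEK293 cells stably overexpressing mGluR5, dye-loaded 60 min at 37 °C, then preincubated with compound 30 min at room temperature in the dark. Ca2+ response to L-glutamate at EC80 read on FLIPR for 2 min. Signal normalised to glutamate (100%) and vehicle (0%); IC50 from % inhibition.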
(A change in cytosolic calcium serves as a functional read-out for many receptors and channels.)

The mark [2] stands for this setting: 1 h, read-out: % reversal (1 h).
Where [3] appears, read: 2 h, read-out: % reversal (2 h).

T1 sequence (P28223 whole entry): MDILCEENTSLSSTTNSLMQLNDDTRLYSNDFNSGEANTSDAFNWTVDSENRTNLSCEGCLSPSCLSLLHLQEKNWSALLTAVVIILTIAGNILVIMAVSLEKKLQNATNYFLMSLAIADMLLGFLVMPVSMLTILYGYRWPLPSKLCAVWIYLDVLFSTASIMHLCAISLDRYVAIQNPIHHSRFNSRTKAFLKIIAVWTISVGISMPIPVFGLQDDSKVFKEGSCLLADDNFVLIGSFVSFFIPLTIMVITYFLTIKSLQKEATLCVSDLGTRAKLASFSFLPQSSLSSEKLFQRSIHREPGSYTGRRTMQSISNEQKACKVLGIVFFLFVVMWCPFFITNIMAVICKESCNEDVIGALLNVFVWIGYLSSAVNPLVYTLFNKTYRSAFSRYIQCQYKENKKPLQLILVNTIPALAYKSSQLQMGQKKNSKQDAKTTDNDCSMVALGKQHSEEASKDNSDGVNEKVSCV
T2 sequence (P41594 21-1212): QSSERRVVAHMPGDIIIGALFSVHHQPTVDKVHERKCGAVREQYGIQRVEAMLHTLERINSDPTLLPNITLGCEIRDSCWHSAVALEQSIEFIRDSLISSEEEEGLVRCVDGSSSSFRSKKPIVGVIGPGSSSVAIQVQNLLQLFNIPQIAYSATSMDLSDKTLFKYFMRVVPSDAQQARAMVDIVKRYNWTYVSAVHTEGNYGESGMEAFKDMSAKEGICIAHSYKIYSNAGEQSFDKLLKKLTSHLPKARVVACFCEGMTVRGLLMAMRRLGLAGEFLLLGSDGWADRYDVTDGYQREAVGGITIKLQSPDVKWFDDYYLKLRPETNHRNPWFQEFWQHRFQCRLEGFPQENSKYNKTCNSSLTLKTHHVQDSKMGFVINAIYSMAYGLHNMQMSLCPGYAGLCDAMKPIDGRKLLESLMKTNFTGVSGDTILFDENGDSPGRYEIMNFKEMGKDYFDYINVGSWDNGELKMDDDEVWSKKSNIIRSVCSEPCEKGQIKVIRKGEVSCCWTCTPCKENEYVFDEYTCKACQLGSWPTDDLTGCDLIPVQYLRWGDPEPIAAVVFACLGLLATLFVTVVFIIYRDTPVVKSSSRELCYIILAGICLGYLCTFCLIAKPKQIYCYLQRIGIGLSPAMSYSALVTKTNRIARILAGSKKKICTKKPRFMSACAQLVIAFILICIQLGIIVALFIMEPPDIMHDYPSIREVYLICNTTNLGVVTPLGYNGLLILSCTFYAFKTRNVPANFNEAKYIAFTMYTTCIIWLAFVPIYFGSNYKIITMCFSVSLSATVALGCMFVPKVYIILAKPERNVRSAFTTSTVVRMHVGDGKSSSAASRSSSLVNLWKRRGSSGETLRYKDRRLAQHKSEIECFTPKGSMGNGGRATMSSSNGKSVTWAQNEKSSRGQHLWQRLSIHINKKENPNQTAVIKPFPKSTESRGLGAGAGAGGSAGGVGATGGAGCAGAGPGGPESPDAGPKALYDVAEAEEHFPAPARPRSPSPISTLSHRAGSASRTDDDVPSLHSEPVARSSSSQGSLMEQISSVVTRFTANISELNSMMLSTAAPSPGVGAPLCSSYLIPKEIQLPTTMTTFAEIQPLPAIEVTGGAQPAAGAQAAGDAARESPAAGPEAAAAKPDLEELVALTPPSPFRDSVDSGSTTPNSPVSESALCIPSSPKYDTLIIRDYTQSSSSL

As usually defined, the IC50 is the concentration needed to halve the response being measured. Lower therefore signals greater potency in that assay. In the case of `O=C(NCC1(NC2CC2)CCCCCC1)c1ccc(C#Cc2ccccn2)cc1` [Example 1, N-((1-(cyclopropylamino)cycloheptyl)methyl)-4-(pyridin-2-ylethynyl)benzamide], the concentration for half-maximal inhibition (IC50) against human 5-HT2AR was 100 to 500 nM; at mGluR5, 1000 to 2000 nM. Further, the inhibition in vivo at 100 mg/kg was determined as 60.5% in test [1] (setting [2]) and 85.7% in test [1] (setting [3]).
As for `O=C(NCC1(NC2CC2)CCCC1)c1ccc(C#Cc2ccncc2)cc1` [Example 2, N-((1-(cyclopropylamino)cyclopentyl)methyl)-4-(pyridin-4-ylethynyl)benzamide], the IC50 was below 100 nM against human 5-HT2AR and 500 to 1000 nM on mGluR5. Besides, the inhibition in vivo at 12.5 mg/kg was determined as 3.91% in test [1] (setting [2]) and 28.1% in test [1] (setting [3]).
Consider `O=C(NCC1(NC2CC2)CCCC1)c1ccc(C#Cc2ccc(F)cn2)cc1` [Example 3, N-((1-(cyclopropylamino)cyclopentyl)methyl)-4-((5-fluoropyridin-2-yl)ethynyl)benzamide], for which the half-inhibitory concentration (IC50) at human 5-HT2AR was 100 to 500 nM; at mGluR5, 500 to 1000 nM. In addition, the results for the inhibition in vivo at 50 mg/kg in test [1] (setting [2]) and in test [1] (setting [3]) were 59% and 87.9%, respectively.
In the case of `O=C(NCC1(NC2CC2)CCC1)c1ccc(C#Cc2ccncc2)cc1` [Example 5, N-((1-(cyclopropylamino)cyclobutyl)methyl)-4-(pyridin-4-ylethynyl)benzamide], the half-inhibitory concentration (IC50) at human 5-HT2AR and on mGluR5 was 100 to 500 nM each time. The inhibition in vivo at 50 mg/kg is 43.1% in test [1] (setting [2]) and 34.4% in test [1] (setting [3]).
Consider `O=C(NCC1(NC2CC2)CCC1)c1ccc(C#Cc2ccccc2F)cc1` [Example 9, N-((1-(cyclopropylamino)cyclobutyl)methyl)-4-((2-fluorophenyl)ethynyl)benzamide], for which the values for the half-inhibitory concentration (IC50) at human 5-HT2AR and at mGluR5 were below 100 nM and 100 to 500 nM, respectively. Further, the inhibition in vivo at 100 mg/kg in test [1] (setting [2]) was 64%; in test [1] (setting [3]) it was 59.6%.
In the case of `O=C(NCC1(NC2CC2)CCC1)c1ccc(C#Cc2ccncc2)cc1F` [Example 10, N-((1-(cyclopropylamino)cyclobutyl)methyl)-2-fluoro-4-(pyridin-4-ylethynyl)benzamide], the half-maximal inhibitory concentration (IC50) at human 5-HT2AR and against mGluR5 was 100 to 500 nM each time. Moreover, the inhibition in vivo at 50 mg/kg in test [1] (setting [2]) was 44.9%; in test [1] (setting [3]) it was 36.1%.
`O=C(NCC1(NC2CC2)CCCC1)c1ccc(C#Cc2ccccc2F)cc1` [Example 11, N-((1-(cyclopropylamino)cyclopentyl)methyl)-4-((2-fluorophenyl)ethynyl)benzamide]: the IC50 on human 5-HT2AR was below 100 nM; against mGluR5 it was 100 to 500 nM. Also, the figures for the inhibition in vivo at 100 mg/kg in test [1] (setting [2]) and in test [1] (setting [3]) were 58.7% and 57.4%, respectively.
In the same order, the values of `O=C(NCC1(NC2CC2)CCCCCC1)c1ccc(C#Cc2ccccc2F)cc1` [Example 12, N-((1-(cyclopropylamino)cycloheptyl)methyl)-4-((2-fluorophenyl)ethynyl)benzamide] are 100 to 500 nM, 100 to 500 nM, 53.8% and 74.8%.
For `O=C(NCC1(NC2CC2)CCCCCC1)c1ccc(C#Cc2ccncc2F)cc1` [Example 16, N-((1-(cyclopropylamino)cycloheptyl)methyl)-4-((3-fluoropyridin-4-yl)ethynyl)benzamide], the figures for the IC50 on human 5-HT2AR and against mGluR5 were 100 to 500 nM and 500 to 1000 nM, respectively. Further, the inhibition in vivo at 50 mg/kg in test [1] (setting [2]) turned out to be 61%; in test [1] (setting [3]), 95.8%.
For the compound `O=C(NCC1(NC2CC2)CCCCC1)c1ccc(C#Cc2ccccc2F)cc1` [Example 20, N-((1-(cyclopropylamino)cyclohexyl)methyl)-4-((2-fluorophenyl)ethynyl)benzamide], the half-inhibitory concentration (IC50) against human 5-HT2AR is below 100 nM; against mGluR5, 500 to 1000 nM. Besides, the inhibition in vivo at 100 mg/kg in test [1] (setting [2]) came out at 35%; in test [1] (setting [3]), 67%.
In the case of `O=C(NC[C@@H]1CCCOC1)c1ccc(C#Cc2ccc(F)cc2F)cc1` [Example 124, (S)-4-((2,4-difluorophenyl)ethynyl)-N-((tetrahydro-2H-pyran-3-yl)methyl)benzamide], the IC50 against human 5-HT2AR and against mGluR5 was 100 to 500 nM in each case.
